{
  "source": "patent US20130224239A1",
  "about": "“ALCOHOLIC EXTRACT OF FUNGI OF GENUS […] AND USE THEREOF” (KING SAUD UNIVERSITY, priority 2011, published 2013)",
  "key": {"[1]": {"tested_on": "Staphylococcus aureus infected wounds", "experiment": "Wound healing activity, excision wound model", "assay_type": "in vivo, guinea pig", "method": "Swiss albino mice (20-25 g), male Sprague-Dawley rats (160-180 g) and male guinea pigs (240-260 g) were employed in the study. The animals were left for 2 weeks at room conditions to ensure stabilization before use. They were maintained on standard pellet diet and water ad libitum throughout the experiment. • a) Acute Toxicity: Mice were divided into groups of 6 and the methanol extracts of C. blakesleeana, C. elegans and C. homothallica were administered orally in increasing doses. […] Rats of the 1^St group were given a vehicle (1% v/v Tween 80) in a dose of 5 ml kg^−1 and left as normal control. Rats of the 2nd, 3rd, and 4th groups were administered the methanol extracts of C. blakesleeana, C. elegans and C. homothallica, respectively in a dose of 200 mg kg^−1. All medications were administered orally via the aid of an oral tube for 35 days. […] At the end of the experimental period, blood samples (2 mL) were collected from the retro-orbital venous plexus of each rat (under ether anesthesia) into clean centrifuge tubes. The blood samples were allowed to clot at room temperature for 30 min after which they were centrifuged at 10,000 rpm for 5 minutes. Sera were separate with Pasteur pipette into sterile serum sample tubes and used for biochemical assay.\nMeasurement of Liver and Kidney Function Markers: • Liver functions were evaluated by measuring the serum activity of aspartate aminotransferase (AST) and alanine aminotransferase (ALT) following the method of Reitman and Frankel, Am. J. Clin. Path., 28: 55-60, alkaline phosphatase enzyme (ALP) by the method of Babson et al., Clinical Chemistry, 12: 482-490. Serum levels of total bilirubin, total proteins and albumin were also assayed. Globulin was obtained from the difference between total proteins and albumin. Serum concentrations of uric acid, urea and creatinine were determined colormetrically as measures of kidney functions. All measurements were carried out by protocols well known in the art. • c) Wound Healing Activity: The excision wound model was used to monitor wound contraction and wound closure time. Four groups of male guinea pigs were used in the experiment with 6 animals in each group. At the beginning of the experiment, the dorsal skin of each guinea pig was shaved with an electric clipper. After 24 hours, all animals were anesthetized by diethyl ether and the shaved areas were sterilized with 70% alcoholic solution. A predetermined dorsal area (15 mm×20 mm) was inflicted by cutting away a full thickness of skin (2 mm depth) using toothed forceps, scalpel and pointed scissors. A fresh surgical blade was used for the perpendicular cut in each animal and tension of skin was kept constant during the procedure. Local infection with Staphylococcus aureus was introduced into wounds using 0.5 mL of 10^8 bacteria mL^−1 inoculums. The wounds were left undressed to the open environment and the animals were kept individually in separate cages. • Wounds treatment: Wounds were air exposed and treatment began 24 h after injury. Wounds of the control animals were treated with the vehicle (1% v/v Tween 80). Guinea pigs of the second and third group were treated with total alcohol extract of C. elegans and the isolated compound (adenosine) in a concentration of 5 mg mL^−1, while animals of the fourth group were medicated with latamoxef (Moxalactam)® in a concentration of 30 μg mL^−1 (Reference group). The vehicle, extract, and reference drug were applied topically on the wound surface once a day for 18 days. […] of each tested material was applied slowly, using an insulin syringe, from the central point extending outside the wound area to ensure inclusion of the edges. Swabs were taken on day 5 to confirm the presence of the expected organisms in the pus. • Assessment of wound healing: The wound areas were measured while the animals were under anaesthesia on days 0, 4, 7, 10, 14, and 18 post-wounding by tracing the wound areas onto a transparent tracing paper. […]"}, "[2]": {"tested_on": "Pseudomonas aeruginosa (RCMB 0102)", "experiment": "Antimicrobial screening, disc diffusion", "assay_type": "cell-based", "details": "Pseudomonas aeurginosa; compounds isolated from Cunninghamella elegans", "method": "(§1) The alcoholic extracts obtained were used for testing their antimicrobial activity. Each extract (0.5 g) was dissolved in 10 ml water. Same concentrations for the successive extracts (using diethyl ether, chloroform, ethyl acetate and n-butanol) were also prepared.\n(§2) The representatives of Gram negative bacteria, namely Salmonella typhimuium (RCMB 0104), Escherichia coli (RCMB 0103), Pseudomonas aeruginosa (RCMB 0102) and Gram positive bacteria, namely Bacillus subtilis (RCMB 0107), Staphylococcus aureus (RCMB 0106), Streptococcus pyogenes (RCMB 0109), unicellular fungi, namely Candida albicans (RCMB 5002) and filamentous fungi, namely Aspergillus fumigatus (RCMB 2003) and Penicllium expansum (RCMB 1006) were used as test organisms (RCMB: The Regional Center for Mycology and Biotechnology, Al-azhar University Nasser City, Cairo, Egypt).\n(§3) For antimicrobial screening the well known disc diffusion and agar well diffusion methods were used, together with the determination of minimum inhibitory concentration (MIC), see Duguid et al., Microbial Infections, The English Language Book Society, Churchill Livingston, Edingburgh, London, 1978; vol. 1, page 110.\n(§4) Disc diffusion method: The agar disc diffusion method is employed for the determination of antimicrobial activities of the extracts of the investigated fungal species. Sterilized paper discs (Whatman No. 1) ([…]) were separately soaked in the extracts and transferred onto the surface of growth media seeded with the test organism. After incubation period, following suitable conditions for the test organism, the diameter of the inhibition zone around the discs was measured in millimeters. The obtained result was the mean of three experiments.\n(§5) Each fungal species was grown on malt extract media at 28±2° C. for 14 days. The metabolites of the fungal species were screened for antimicrobial activity. The inhibition zones around each disc were measured, in millimeter, and recorded (Tables 1)."}, "[3]": {"tested_on": "Escherichia coli (RCMB 0103)", "experiment": "Antimicrobial screening, disc diffusion", "assay_type": "cell-based", "details": "compounds isolated from Cunninghamella elegans", "method": "as §1, §2, §3, §4, §5"}, "[4]": {"tested_on": "Penicllium expansum (RCMB 1006)", "experiment": "Antimicrobial screening, disc diffusion", "assay_type": "cell-based", "details": "Penicillium expansum; compounds isolated from Cunninghamella elegans", "method": "as §1, §2, §3, §4, §5"}, "[5]": {"tested_on": "Streptococcus pyogenes (RCMB 0109)", "experiment": "Antimicrobial screening, disc diffusion", "assay_type": "cell-based", "details": "compounds isolated from Cunninghamella elegans", "method": "as §1, §2, §3, §4, §5"}, "[6]": {"tested_on": "Bacillus subtilis (RCMB 0107)", "experiment": "Antimicrobial screening, disc diffusion", "assay_type": "cell-based", "details": "compounds isolated from Cunninghamella elegans", "method": "as §1, §2, §3, §4, §5"}, "[7]": {"tested_on": "Candida albicans (RCMB 5002)", "experiment": "Antimicrobial screening, disc diffusion", "assay_type": "cell-based", "details": "compounds isolated from Cunninghamella elegans", "method": "as §1, §2, §3, §4, §5"}, "[8]": {"tested_on": "Staphylococcus aureus (RCMB 0106)", "experiment": "Antimicrobial screening, disc diffusion", "assay_type": "cell-based", "details": "compounds isolated from Cunninghamella elegans", "method": "as §1, §2, §3, §4, §5"}, "[9]": {"tested_on": "Aspergillus fumigatus (RCMB 2003)", "experiment": "Antimicrobial screening, disc diffusion", "assay_type": "cell-based", "details": "compounds isolated from Cunninghamella elegans", "method": "as §1, §2, §3, §4, §5"}, "[10]": {"details": "topical 5 mg mL^−1 once a day, n = 6"}, "[11]": {"details": "topical 5 mg mL^−1 once a day, n = 6, listed as compound 1 (adenosine)"}},
  "note": "Entries after “also recorded” stand apart in the source; their conditions may differ. Marks after values point to notes of the source that are not given here.",
  "data": [
    {"molecule": "Nc1ncnc2c1ncn2C1OC(CO)C(O)C1O", "note": "(centres unmarked) [Compound 4, 2-(6-amino-9H-purine-9-yl)-5-(hydroxymethyl)oxolane-3,4-diol]", "values": [
      {"measurement": "wound contraction", "setting": "[1]; Day 14, topical 5 mg mL^−1", "value": 76.50, "unit": "%"},
      {"measurement": "Wound area on day 0", "setting": "[1]; day 0, topical 5 mg mL^−1 once a day, n = 6", "value": "300 ± 0.0", "unit": "mm^2"},
      {"measurement": "Wound area on day 4", "setting": "[1]; day 4, topical 5 mg mL^−1 once a day, n = 6", "value": "241.2 ± 4.23* mm^2"},
      {"measurement": "Wound area on day 7", "setting": "[1]; day 7, topical 5 mg mL^−1 once a day, n = 6", "value": "168.1 ± 2.18** mm^2"},
      {"measurement": "Wound area on day 10", "setting": "[1]; [10]", "value": "83.4±3.16", "unit": "mm^2"},
      {"measurement": "Wound area on day 10", "setting": "[1]; [11]", "value": "85.6 ± 4.13*** mm^2"},
      {"measurement": "Wound area on day 14", "setting": "[1]; [10]", "value": "22.4±1.15", "unit": "mm^2"},
      {"measurement": "Wound area on day 14", "setting": "[1]; [11]", "value": "23.3 ± 1.11*** mm^2"},
      {"measurement": "Wound area on day 18", "setting": "[1]; [10]", "value": 0.0, "unit": "mm^2"},
      {"measurement": "Wound area on day 18", "setting": "[1]; [11]", "value": "0.0 ± 0.0", "unit": "mm^2"},
      {"measurement": "wound healing effect (in words)", "setting": "[1]; topical 5 mg mL−1 on excised infected wound", "value": "effective in healing excision type of wounds; also recorded: good wound healing effect"},
      {"measurement": "Diameter of inhibition zone", "setting": "[2]", "value": "00.0", "unit": "mm"},
      {"measurement": "Diameter of inhibition zone", "setting": "[3]", "value": "00.0", "unit": "mm"},
      {"measurement": "Diameter of inhibition zone", "setting": "[4]", "value": "00.0", "unit": "mm"},
      {"measurement": "Diameter of inhibition zone", "setting": "[5]", "value": "00.0", "unit": "mm"},
      {"measurement": "Diameter of inhibition zone", "setting": "[6]", "value": "00.0", "unit": "mm"},
      {"measurement": "Diameter of inhibition zone", "setting": "[7]", "value": "00.0", "unit": "mm"},
      {"measurement": "Diameter of inhibition zone", "setting": "[8]", "value": "30.0 ± 0.1", "unit": "mm"},
      {"measurement": "Diameter of inhibition zone", "setting": "[8]; listed as compound 4", "value": "30.0±0.01", "unit": "mm"},
      {"measurement": "Diameter of inhibition zone", "setting": "[9]", "value": "00.0", "unit": "mm"}
    ]}
  ]
}
